Structures are written as SMILES.

For the assay, the target named is T1, hMCHR1 (Homo sapiens, UniProt Q99705).
T1 construct: expressed in transfected cells; host or cells: HEK293
T1 sequence (Q99705 whole entry): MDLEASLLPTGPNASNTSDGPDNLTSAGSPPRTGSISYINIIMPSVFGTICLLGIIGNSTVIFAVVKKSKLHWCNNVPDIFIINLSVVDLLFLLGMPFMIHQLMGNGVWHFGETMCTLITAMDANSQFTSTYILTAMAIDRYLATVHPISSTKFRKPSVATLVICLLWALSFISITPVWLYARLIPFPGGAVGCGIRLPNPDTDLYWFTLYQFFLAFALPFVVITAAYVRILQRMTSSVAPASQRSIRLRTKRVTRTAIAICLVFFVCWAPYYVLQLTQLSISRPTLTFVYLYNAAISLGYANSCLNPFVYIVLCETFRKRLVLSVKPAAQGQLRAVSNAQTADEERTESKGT
Kind of assay: MCHR1 pIC50 Determination FLIPR Assay. Particulars: HEK293 cells stably transfected with hMCHR1; MCH challenge at 4xEC50; in at least one experimental run. Format: cell-based. How it is done:
MCHR1 pIC50 Determination FLIPR™ Assay: HEK293 cells stably transfected with hMCHR1 were propagated as adherent cultures at 37° C. in a humidified incubator. Cells were split 1:8 at 90% confluency two times per week. New cell stocks were recovered from storage every two months. Cells were plated in black 384-well plates (Greiner) 24 hours prior to assay at 15,000 cells/well in 50 μL DMEM/F12, 10% FBS, 2 mM l-glutamine. Compounds to be profiled were prepared by making a stock solution at 3×10^−3M in 100% DMSO. The stock solutions were serially diluted 1:4 in 100% DMSO using JANUS (PerkinElmer) liquid handling instrument to allow for an 11 point curve in singlicate. At the time of the assay, the media was removed from the cell plate by aspiration, followed by the addition of 20 μL of loading buffer (Calcium 4 Kit, […]). Following 50 min incubation at 37° C., 10 μL of compound was added to the plates via the FLIPR™ instrument ([…]). The plates were incubated at room temperature for 15 minutes along with an MCH peptide agonist challenge plate. On the FLIPR™, a basal response was collected over 10 seconds followed by the addition of 10 μL of MCH challenge concentration at 4×EC50. Data was collected over 4 minutes and subjected to a nonlinear regression analysis curve fitting program to generate pIC50s.
The compound `O=C1N(c2ccc(-n3ccc(OCc4ccc(Cl)cn4)cc3=O)cn2)CC12CCNCC2` [Example 4, 4-{[(5-chloro-2-pyridinyl)methyl]oxy}-6′-(1-oxo-2,7-diazaspiro[3.5]nonan-2-yl)-2H-1,3′-bipyridin-2-one] came in with a 50% inhibitory concentration (IC50) of 49 nM.
In turn, `O=C1CC2(CCCN(c3ccc(-n4ccc(OCc5ccc(Cl)cn5)cc4=O)cn3)C2)C(=O)N1` (stereo not drawn) [Example 11] displayed an IC50 of 50 nM.
For the compound `O=c1cc(OCc2ccc(Cl)cn2)ccn1-c1ccc(N2CCC3(CC2)CNC3)nc1` [Example 12], the IC50 stood at 54 nM.

As usually defined, the IC50 is the concentration needed to halve the response being measured. A higher IC50 goes with weaker potency.

(Values after US20120071459A1, “BIS-PYRIDYLPYRIDONES AS MELANIN-CONCENTRATING HORMONE RECEPTOR 1 ANTAGONISTS” (GlaxoSmithKline LLC, priority 2009, published 2012).)
